In patent US20220000894A1, “Substance for treatment or prevention of diseases, method for designing the same, and method for preparing the same” (priority 2018, published 2022):

Tested on: patients with allergic rhinitis
Assay: Clinical application trial for treatment of allergic rhinitis
Type: in vivo, human
Method: 1. Clinical data: 60 cases (a total number) of outpatients and inpatients with allergic rhinitis were enrolled, and were randomly divided into a treatment group with 30 patients and a control group with 30 patients.
2. Diagnosis criteria: 2 or more clinical symptoms such as sneezing, clear water-like nasal discharge, nasal congestion, and nasal itching, appearing continuously or continually for 1 hour or more every day. It may be accompanied by eye symptoms such as eye itching and conjunctival hyperemia. Common signs often include pale nasal mucosa, edema, and watery nasal discharge. Positive in the allergen skin prick test.
3. […] The patients in the control group orally took loratadine 10 mg per time, once day, for 30 days.
4. […] Total effective rate=cured rate+effective rate.

CCOC(=O)N1CCC(=C2c3ccc(Cl)cc3CCc3cccnc32)CC1 [loratadine]
recurrence after treatment (6-month follow-up / after drug discontinuance): allergic symptoms appeared after contact with allergens after drug discontinuance
Effective (number of patients) (30 patients per group): 20
Ineffective (number of patients) (30 patients per group): 10
Total effective rate (%) (cured rate + effective rate) (30 patients per group): 66.67%
Cured (number of patients) (30 patients per group, cured = symptoms and signs disappear for 60 days without recurrence): 0
adverse reactions occurred (control group of 30 patients): 5 cases
